Measured values published in PubChem BioAssay (NCI).
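All cell lines were grown in 96-well plates and treated with compound for 48 hours. GI50: concentration for 50% inhibition of growth. The concentration for full growth arrest is given as TGI.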

Legend:
Assay in all cases: inhibition of tumour cell growth, NCI panel, 48 h
786-0 renal = test system: 786-0 renal
A498 renal = test system: A498 renal
A549 NSCLC = test system: A549 NSCLC
ACHN renal = test system: ACHN renal
BT-549 breast = test system: BT-549 breast
CAKI-1 renal = test system: CAKI-1 renal
CCRF-CEM leukemia = test system: CCRF-CEM leukemia
COLO 205 colon = test system: COLO 205 colon
DU-145 prostate = test system: DU-145 prostate
EKVX NSCLC = test system: EKVX NSCLC
HCC-2998 colon = test system: HCC-2998 colon
HCT-116 colon = test system: HCT-116 colon
HCT-15 colon = test system: HCT-15 colon
HL-60(TB) leukemia = test system: HL-60(TB) leukemia
HOP-62 NSCLC = test system: HOP-62 NSCLC
HOP-92 NSCLC = test system: HOP-92 NSCLC
HS 578T breast = test system: HS 578T breast
HT29 colon = test system: HT29 colon
IGROV1 ovarian = test system: IGROV1 ovarian
K-562 leukemia = test system: K-562 leukemia
KM12 colon = test system: KM12 colon
LOX IMVI melanoma = test system: LOX IMVI melanoma
M14 melanoma = test system: M14 melanoma
MALME-3M melanoma = test system: MALME-3M melanoma
MCF7 breast = test system: MCF7 breast
MDA-MB-231 breast = test system: MDA-MB-231 breast
MDA-MB-435 = test system: MDA-MB-435
MOLT-4 leukemia = test system: MOLT-4 leukemia
NCI-H226 lung = test system: NCI-H226 lung
NCI-H23 lung = test system: NCI-H23 lung
NCI-H460 lung = test system: NCI-H460 lung
NCI-H522 lung = test system: NCI-H522 lung
NCI/ADR-RES ovarian = test system: NCI/ADR-RES ovarian
OVCAR-3 ovarian = test system: OVCAR-3 ovarian
OVCAR-4 ovarian = test system: OVCAR-4 ovarian
OVCAR-5 ovarian = test system: OVCAR-5 ovarian
OVCAR-8 ovarian = test system: OVCAR-8 ovarian
PC-3 prostate = test system: PC-3 prostate
RPMI-8226 leukemia = test system: RPMI-8226 leukemia
RXF 393 renal = test system: RXF 393 renal
SF-268 CNS = test system: SF-268 CNS
SF-295 CNS = test system: SF-295 CNS
SF-539 CNS = test system: SF-539 CNS
SK-MEL-2 melanoma = test system: SK-MEL-2 melanoma
SK-MEL-28 melanoma = test system: SK-MEL-28 melanoma
SK-MEL-5 melanoma = test system: SK-MEL-5 melanoma
SK-OV-3 ovarian = test system: SK-OV-3 ovarian
SN12C renal = test system: SN12C renal
SNB-19 CNS = test system: SNB-19 CNS
SNB-75 CNS = test system: SNB-75 CNS
SW-620 colon = test system: SW-620 colon
T-47D breast = test system: T-47D breast
TK-10 renal = test system: TK-10 renal
U251 CNS = test system: U251 CNS
UACC-257 melanoma = test system: UACC-257 melanoma
UACC-62 melanoma = test system: UACC-62 melanoma
UO-31 renal = test system: UO-31 renal

COc1ccc2c(c1)C(=O)c1c-2n(CCCN)c(=O)c2ccccc12
GI50 (786-0 renal): 19.6 nM
TGI (786-0 renal): 310 nM
GI50 (A498 renal): 836 nM
TGI (A498 renal): 2210 nM
GI50 (A549 NSCLC): < 10 nM
TGI (A549 NSCLC): 68.9 nM
GI50 (ACHN renal): < 13.4 nM
TGI (ACHN renal): 40.8 nM
GI50 (BT-549 breast): 820 nM
TGI (BT-549 breast): 2630 nM
GI50 (CAKI-1 renal): < 46.8 nM
TGI (CAKI-1 renal): 251 nM
GI50 (CCRF-CEM leukemia): < 12.9 nM
TGI (CCRF-CEM leukemia): < 35.6 nM
GI50 (COLO 205 colon): < 31.8 nM
TGI (COLO 205 colon): 807 nM
GI50 (DU-145 prostate): 17.9 nM
TGI (DU-145 prostate): 293 nM
GI50 (EKVX NSCLC): 196 nM
TGI (EKVX NSCLC): 1830 nM
GI50 (HCC-2998 colon): 164 nM
TGI (HCC-2998 colon): 1180 nM
GI50 (HCT-116 colon): < 11.5 nM
TGI (HCT-116 colon): 148 nM
GI50 (HCT-15 colon): 17.9 nM
TGI (HCT-15 colon): 265 nM
GI50 (HL-60(TB) leukemia): < 10 nM
GI50 (HOP-62 NSCLC): < 15.2 nM
TGI (HOP-62 NSCLC): 94.2 nM
GI50 (HOP-92 NSCLC): 181 nM
TGI (HOP-92 NSCLC): 1430 nM
GI50 (HS 578T breast): 649 nM
TGI (HS 578T breast): 3090 nM
GI50 (HT29 colon): < 29.8 nM
TGI (HT29 colon): 188 nM
GI50 (IGROV1 ovarian): < 13.8 nM
TGI (IGROV1 ovarian): 689 nM
GI50 (K-562 leukemia): < 10 nM
TGI (K-562 leukemia): 187 nM
GI50 (KM12 colon): 14.4 nM
TGI (KM12 colon): 78.4 nM
GI50 (LOX IMVI melanoma): 10.2 nM
TGI (LOX IMVI melanoma): 78.6 nM
GI50 (M14 melanoma): 95.1 nM
TGI (M14 melanoma): 1530 nM
GI50 (MALME-3M melanoma): 31 nM
TGI (MALME-3M melanoma): 352 nM
GI50 (MCF7 breast): < 10 nM
TGI (MCF7 breast): 1070 nM
GI50 (MDA-MB-231 breast): 70.4 nM
TGI (MDA-MB-231 breast): 240 nM
GI50 (MDA-MB-435): 146 nM
TGI (MDA-MB-435): 1610 nM
GI50 (MOLT-4 leukemia): < 10 nM
TGI (MOLT-4 leukemia): < 24.3 nM
GI50 (NCI-H226 lung): 44.1 nM
TGI (NCI-H226 lung): 122 nM
GI50 (NCI-H23 lung): 49.7 nM
TGI (NCI-H23 lung): 1020 nM
GI50 (NCI-H460 lung): < 10 nM
TGI (NCI-H460 lung): 40.2 nM
GI50 (NCI-H522 lung): 12.3 nM
TGI (NCI-H522 lung): 505 nM
GI50 (NCI/ADR-RES ovarian): 99.2 nM
TGI (NCI/ADR-RES ovarian): 1950 nM
GI50 (OVCAR-3 ovarian): 95.7 nM
TGI (OVCAR-3 ovarian): 798 nM
GI50 (OVCAR-4 ovarian): 133 nM
TGI (OVCAR-4 ovarian): 1610 nM
GI50 (OVCAR-5 ovarian): 142 nM
TGI (OVCAR-5 ovarian): 1180 nM
GI50 (OVCAR-8 ovarian): 11.3 nM
TGI (OVCAR-8 ovarian): 162 nM
GI50 (PC-3 prostate): 206 nM
TGI (PC-3 prostate): 1260 nM
GI50 (RPMI-8226 leukemia): < 11.4 nM
TGI (RPMI-8226 leukemia): 31.6 nM
GI50 (RXF 393 renal): 137 nM
TGI (RXF 393 renal): 910 nM
GI50 (SF-268 CNS): 45 nM
TGI (SF-268 CNS): 1090 nM
GI50 (SF-295 CNS): 15 nM
TGI (SF-295 CNS): 657 nM
GI50 (SF-539 CNS): 60.9 nM
TGI (SF-539 CNS): 646 nM
GI50 (SK-MEL-2 melanoma): 820 nM
TGI (SK-MEL-2 melanoma): 2670 nM
GI50 (SK-MEL-28 melanoma): 459 nM
TGI (SK-MEL-28 melanoma): 1890 nM
GI50 (SK-MEL-5 melanoma): 58.6 nM
TGI (SK-MEL-5 melanoma): 477 nM
GI50 (SK-OV-3 ovarian): < 20.2 nM
TGI (SK-OV-3 ovarian): 65.2 nM
GI50 (SN12C renal): < 16 nM
TGI (SN12C renal): 118 nM
GI50 (SNB-19 CNS): < 19.8 nM
TGI (SNB-19 CNS): 105 nM
GI50 (SNB-75 CNS): 15.1 nM
TGI (SNB-75 CNS): 1540 nM
GI50 (SW-620 colon): < 10 nM
TGI (SW-620 colon): 1140 nM
GI50 (T-47D breast): < 21.8 nM
TGI (T-47D breast): 109 nM
GI50 (TK-10 renal): 116 nM
TGI (TK-10 renal): 980 nM
GI50 (U251 CNS): < 17.3 nM
TGI (U251 CNS): 271 nM
GI50 (UACC-257 melanoma): 383 nM
TGI (UACC-257 melanoma): 2070 nM
GI50 (UACC-62 melanoma): 166 nM
TGI (UACC-62 melanoma): 1210 nM
GI50 (UO-31 renal): 41.7 nM
TGI (UO-31 renal): 486 nM
